From paper PMC7886681, “Characterization and Validation of Arg286 Residue of IL-1RAcP as a Potential Drug Target for Osteoarthritis” (Frontiers in Chemistry, 2021)
Bridges are numbered along the chain shown (N, C = ends). Where no end group is shown, it is not given here.

Tests used:
[1] = biological target: IL-1β:IL-1RI:IL-1RAcP complex (Homo sapiens, UniProt P01584+P14778); assay: Receptor complex immunoprecipitation pull-down with IL-1β western blot; assay type: biochemical; conditions: for IL-1β pull down inhibition: concentration not given
IL-1β:IL-1RI:IL-1RAcP complex, sequence (P01584 117-269): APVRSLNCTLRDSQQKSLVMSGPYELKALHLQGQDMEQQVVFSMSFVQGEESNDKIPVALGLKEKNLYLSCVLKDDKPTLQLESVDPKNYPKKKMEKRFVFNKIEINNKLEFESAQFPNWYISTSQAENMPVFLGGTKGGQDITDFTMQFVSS
IL-1β:IL-1RI:IL-1RAcP complex, sequence (P14778 18-332 limits assumed): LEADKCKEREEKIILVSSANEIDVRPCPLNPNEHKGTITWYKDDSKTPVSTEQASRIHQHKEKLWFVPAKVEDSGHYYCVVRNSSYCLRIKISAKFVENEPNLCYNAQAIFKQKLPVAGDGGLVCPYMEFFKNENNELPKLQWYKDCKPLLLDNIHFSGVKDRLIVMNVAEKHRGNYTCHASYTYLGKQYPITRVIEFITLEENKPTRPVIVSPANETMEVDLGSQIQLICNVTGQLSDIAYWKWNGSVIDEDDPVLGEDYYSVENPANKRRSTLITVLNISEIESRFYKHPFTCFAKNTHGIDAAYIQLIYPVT
Protocol: IL-1β (20 ng μl^−1), IL-1RI (100 ng μl^−1), and 6xHis-tagged IL-1RAcP (40 ng μl^−1) were incubated with parent Peptide 1.0, a peptide variant, or the antibody inhibitor at various concentrations in 50 μl of PBS for 1 h at room temperature under rotation. In parallel, IL-1β, IL-1RI, and 6xHis-tagged IL-1RAcP were allowed to interact without parent Peptide 1.0 as a positive control. IL-1β by itself acted as a negative control. BcMag Protein G Magnetic Beads (50 μl, Bioclone) were washed 3 times with washing buffer (57.7 mM Na2HPO4, 42.3 mM NaH2PO4, pH 7.0), incubated with anti-6xHis mouse monoclonal antibody (1 μg, Abcam) for 30 min under rotation, isolated with neodymium magnets, and washed three times with washing buffer (57.7 mM Na2HPO4, 42.3 mM NaH2PO4, pH 7.0). Protein complex mixtures were incubated with the anti-His antibody decorated magnetic beads for 1 h at room temperature under rotation. Magnetic beads were separated (neodymium magnets) and washed 3X with buffer (57.7 mM Na2HPO4, 42.3 mM NaH2PO4, pH 7.0). Immunoprecipitated proteins were eluted with 20 μl of 4X sample buffer (10 min, 70°C) and analyzed by western blotting (anti-IL1β antibody).
SDS-PAGE was used to separate the immune-precipitated proteins in a 4–20% Tris-Glycine gel for 90 min at 125 V. The proteins were transferred for 2 h at 25 V onto an Immobilion PVDF membrane. After blocking the membrane using PBS containing 0.2% (w/v) I-Block and 0.1% Tween 20 for 1 h at room temperature (or overnight at 4°C), the membrane was subjected to a 2-h incubation with an anti-IL1β antibody (1:1,000, Cell Signaling Technology) while undergoing continuous agitation. The membrane was washed with PBS containing 0.1% Tween 20, then subjected to a 1-h incubation with the secondary anti-mouse horseradish-peroxidase-conjugated anti-IgG antibody (1:10,000, Invitrogen). The western blot was developed using a chemiluminescence system (SuperSignal^TM West Dura Extended Duration Substrate) and imaged using a Kodak 4000MM system.
Statistical tests (One-way ANOVA with Dunnett's Multiple Comparison adjustment) and non-linear regression of the dose response pull down peptide inhibition data were performed using GraphPad Prism.

[2] = test system: IL-1β signaling in HEK-Blue IL-1β cells; assay: HEK-Blue IL-1β reporter cell assay (SEAP); assay type: cell-based, human; conditions: 2 μM peptide; IL-1β 2.5 ng/ml; triplicate
Protocol: HEK 293 reporter cells for human IL-1β (HEK-Blue IL-1β cells, Invivogen) were used to test the ability of peptide variants to inhibit IL-1β signaling pathway. HEK-Blue IL-1β cells were used according to manufacturer instructions. HEK-Blue IL-1β cells were cultured in Dulbecco's modified Eagle's medium (DMEM, Gibco) additioned with 10% heat inactivated fetal bovine serum (ATCC), 4.5 g/l glucose (Sigma), and 2 mM L-glutamine (ATCC) at 37°C, 5% CO2, in a humidified environment. HEK-Blue IL-1β cells (5,000 cells/well) were plated into 96-well tissue culture plates. The following day, cells were pre-treated for 1 h with peptide variants (Peptides 1.0, 1.1, 1.2, 2.0, 3.0, 4.0, and 4.3) or soluble IL-1RAcP (2 ng/μL) as a positive control. The cells were then stimulated with IL-1β at 2.5 ng/ml for 30 min. Following stimulation, the medium was changed and the inhibitors were added again to the plate. The cells were then left to incubate overnight. The next day, 160 μl of QUANTI-Blue (Invivogen) were added to each well. The plate was incubated at 37°C for 1 h. Then, the plate was placed in a spectrophotometer to detect the levels of secreted embryonic alkaline phosphatase (SEAP) in each well at a wavelength of 625–655 nm. Each peptide was tested in triplicate and an ANOVA test with Dunnett's test for multiple comparisons was performed to determine significance of inhibition.

[3] = biological target: T1, interleukin 1β (IL-1β) (UniProt P01584 117-269); assay: pull-down; IL-1β (20 ng/µl), IL-1RI (100 ng/µl) and 6xHis-tagged IL-1RAcP (40 ng/µl) incubated with or without peptide at various concentrations in 50 µl PBS, 1 h, room temperature; captured on anti-6xHis antibody on Protein G magnetic beads; washed in phosphate buffer pH 7.0; western blot with anti-IL-1β; band intensity relative to the control without peptide; conditions: both partners purified
T1 construct: interleukin 1β used at 20 ng/µl in the pull-down; Species is surmised as human: PDB 4DEP was used for modelling, the reporter cells are for human IL-1β and the MS search used the human database

[4] = biological target: T1, interleukin 1β (IL-1β); assay: cell-based or functional assay

## TINESISHS A TEDETRTQILS [Peptide 2.0, negative control peptide with alanine instead of arginine in position 286]
[1]; 25 nM peptide
  IL-1β in the pulled-down fraction, % of positive control: 99%

## T C N Q SISHS R T QNQ TRTQ C LS (disulfide) [Peptide 4.2, cyclized Gln/Asn variant, cycle length 18]
[1]; 0.04 nM peptide
  IL-1β concentration in the pulled down fraction, % of positive control: 102%
[1]; 40 nM peptide
  IL-1β concentration in the pulled down fraction, % of positive control: 36%
[1]
  IL-1β pull down inhibition: higher than 45%
[2]
  difference in inhibition of IL-1β signaling versus Peptide 1.0: 42%

## TINESISHSRTEDETRMQILS [Peptide 3.0]
[1]; 0.04 nM peptide
  IL-1β concentration in the pulled down fraction, % of positive control: 112%
[1]; 40 and 4 nM peptide, relative to positive control without inhibitor
  IL-1β pull down reduced to: 8–9%
[1]; His-tagged IL-1RAcP pull-down, IL-1β western blot band intensity relative to positive control, non-linear regression of dose response, read-out: IC50, inhibition of IL-1β complex formation
  IC50: 0.304 nM
[1]
  IL-1β pull down inhibition: higher than 45%

## T C NESISHS R TEDETRTQ C LS (disulfide) [Peptide 1.2, cyclized Peptide 1.0 variant, cycle length 18]
[1]; 0.4 nM peptide
  IL-1β concentration in the pulled down fraction, % of positive control: 60%
[1]; 4 nM peptide
  IL-1β concentration in the pulled down fraction, % of positive control: 51%
[1]; 40 nM peptide
  IL-1β concentration in the pulled down fraction, % of positive control: 35%
[1]
  IL-1β pull down inhibition: higher than 45%
[2]
  difference in inhibition of IL-1β signaling versus Peptide 1.0: 28%

## TINESISHS R TEDETRTQILS [Peptide 1.0, synthetic peptide mimicking IL-1RAcP Arg286 hot spot region]
[1]; 12.5 nM peptide, relative to positive control without inhibitor
  IL-1β pull down: 60%
[1]; 124 and 62 nM peptide
  reduction of IL-1β pull down: 26–30%
[1]
  IL-1β pull down inhibition: higher than 45%

B1: Peptide 4.2 (peptide)
peptide: TCNQSISHSRTQNQTRTQCLS
modifications: disulfide 2-19
notes: IL-1RAcP stretch around Arg286 with two cysteines for isoleucines and Gln/Asn for Glu/Asp; source: synthetic peptide (Biomatik; Fmoc/tBu solid phase, RP-HPLC to 98% purity)
[3]
  % IL-1β pull down with IL-1RAcP relative to no peptide (peptide at 40 nM): 36%
[4]
  HEK-Blue IL-1β reporter cells (SEAP), inhibition of IL-1β signalling at 2 µM peptide, difference from Peptide 1.0; blocks formation of the IL-1β complex with IL-1RI and IL-1RAcP: 42%

B2: Peptide 1.0 (peptide)
peptide: TINESISHSRTEDETRTQILS
notes: Linear, 21 residues; also called parent Peptide 1.0; lead peptide; source: synthetic peptide (Peptide 2.0, Inc; Fmoc/tBu solid phase, RP-HPLC to 98% purity)
[3]
  % IL-1β pull down with IL-1RAcP relative to no peptide (peptide at 12.5 nM): 60%

B3: Peptide 1.2 (peptide)
peptide: TCNESISHSRTEDETRTQCLS
modifications: disulfide 2-19
notes: IL-1RAcP stretch around Arg286 with two isoleucines replaced by cysteine; source: synthetic peptide (Peptide 2.0, Inc; Fmoc/tBu solid phase, RP-HPLC to 98% purity)
[3]
  % IL-1β pull down with IL-1RAcP relative to no peptide (peptide at 0.4 nM): 60%
  % IL-1β pull down with IL-1RAcP relative to no peptide (peptide at 4 nM): 51%
  % IL-1β pull down with IL-1RAcP relative to no peptide (peptide at 40 nM): 35%
[4]
  HEK-Blue IL-1β reporter cells (SEAP), inhibition of IL-1β signalling at 2 µM peptide, difference from Peptide 1.0; blocks formation of the IL-1β complex with IL-1RI and IL-1RAcP: 28%

B4: Peptide 3.0 (peptide)
peptide: TINESISHSRTEDETRMQILS
notes: IL-1RAcP stretch around Arg286 with methionine at 293; source: synthetic peptide (Peptide 2.0, Inc; Fmoc/tBu solid phase, RP-HPLC to 98% purity)
[3]
  IC50: 0.303 nM
[4]
  HEK-Blue IL-1β reporter cells (SEAP), inhibition of IL-1β signalling at 2 µM peptide, difference from Peptide 1.0; blocks formation of the IL-1β complex with IL-1RI and IL-1RAcP: 54%
